Patent US12403132B2, “Methods of treating bone marrow failure syndromes and compositions for use in the same” (The Board of Trustees of the Leland Stanford Junior …, priority 2020, dated 2025)
Each block holds one compound with its values, some of them ahead of it.

Biological target: T1, NLK (Homo sapiens, UniProt Q9UBE8)
T1 sequence (Q9UBE8 1-527): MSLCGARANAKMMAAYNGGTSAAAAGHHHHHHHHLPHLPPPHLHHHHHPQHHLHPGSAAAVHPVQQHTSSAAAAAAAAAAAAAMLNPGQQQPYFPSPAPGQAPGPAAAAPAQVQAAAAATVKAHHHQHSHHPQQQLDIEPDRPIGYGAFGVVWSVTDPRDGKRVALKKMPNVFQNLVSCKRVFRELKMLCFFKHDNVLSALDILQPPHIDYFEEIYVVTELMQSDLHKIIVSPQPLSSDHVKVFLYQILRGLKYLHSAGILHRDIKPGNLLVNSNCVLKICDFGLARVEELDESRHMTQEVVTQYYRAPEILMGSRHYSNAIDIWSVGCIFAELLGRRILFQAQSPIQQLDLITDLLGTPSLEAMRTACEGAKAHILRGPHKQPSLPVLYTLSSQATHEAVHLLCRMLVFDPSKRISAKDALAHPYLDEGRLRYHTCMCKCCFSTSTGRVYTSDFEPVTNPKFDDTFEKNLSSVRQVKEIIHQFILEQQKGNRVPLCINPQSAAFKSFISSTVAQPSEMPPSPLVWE
Test: NLK in vitro kinase assay, compound added to active NLK immunopurified from Kp53A1 cells
Type: biochemical
Parameters: inhibition of NLK kinase activity in vitro: dose or concentration left out as unconfirmed
Settings: for NLK activity with compound added to activated NLK in in vitro kinase assay: 0, 50 nM, 50 μM or 50 mM, 30 mins
Method: FIG. 6. […] (a) Schematic of assay utilized to screen compounds for effects on erythroid progenitor cell expansion. Lin-Kit+fetal liver cells were obtained from mouse embryos expressing tet-on shRNA against RPS19, at day E14.5-15.5. Cells were plated at 2000 cell per well in 96-well plates in the presence or absence of doxycycline. Relative amounts of live cells were quantified by luciferase-based Cell titer-Glo® assay. (b) TGFβR1 inhibitors including SB431542 were assessed for their ability to increase cell expansion in RPS19-insuffiency. As a control, untreated (no doxycycline) is represented at the far left while all other samples were treated with doxycycline to induce RPS19-insufficiency. (c) Kit+ erythroid progenitors were grown in the absence of doxycycline and in the presence of 10 μM of indicated compound. As a comparison, samples with no inhibitor added are represented in grey. In addition, cells were either left untreated, or treated with 5 ng/ml of TGFβ1 for 5 days before being subjected to Cell TiterGlo® assay. (d) Schematic indicating Smad2 and Smad3 serve as substrates for activated TGFβR1 while NLK, c-Myb and raptor serve as substrates for activated NLK (upper panel). K562 cells were stimulated with 5 ng/ml TGFβ1 for 10 min and TGFβR1 was immunopurified after cell lysis and protein normalization. TGFβR1 was added to purified Smad2 (middle panel) and Smad3 (lower panel) in the presence of ATP and Mg^2+ at 37° C. for 30 min. As per NLK kinase assay, phosphorylation of substrates was detected by antibody raised against phosphorylated serine residues. Compounds with inhibitory properties against TGFβR1, other TGFB pathway factors, or NLK expression were added to the kinase reactions at concentrations known to inhibit TGFB signaling.
FIG. 10. […] (Panel A) Control (shLuc—grey columns) or RPS19-insufficient (shRPS19-—black columns) progenitors were differentiated in erythroid media alone, vehicle or vehicle containing 50 mM metformin or 5 uM SD208 for 5 days. 5000 cells per treatment were lysed and immunopurified NLK was subjected to in vitro kinase assay to determine phosphorylation potential against 3 recognized NLK substrates; NLK itself (upper), c-Myb (middle) or raptor (bottom). (Panel B) Simultaneously, qRT-PCR was performed to examine NLK (upper) and RPS19 (lower) mRNA expression. (Panel C) Active NLK was purified from activated Kp53A1 cells and subjected to in vitro kinase assay in the presence of 0, 50 nM, 50 μM, or 50 mM metformin or SD208. The phosphorylation of NLK (upper), c-Myb (middle) and raptor (lower) was determined after 30 mins. (Panel D) CD34+ progenitors were transduced with a combination of either shRNA against luciferase (shLuc—grey columns) or RPS19 (shRPS19—black columns) and siRNA against a non-targeting sequence (NT) or NLK (siNLK). After 14 days differentiation in the presence or absence of metformin, cells were counted and the percentage of cells with surface expression of CD235 and CD11b were determined by flow cytometry, to yield the number of CD235+ erythroid (upper) and CD11b+ myeloid (lower) cells. The total number of cells is expressed as a percentage of the number of each cell type in the control (untreated/shLuc/NT). […] Statistics: two-tailed Student's t test, significant *P<0.05
For NLK kinase analysis, cultures were treated as indicated and lysed for 30 min at 4° C. in 750 μl of kinase lysis buffer (50 mM Tris [pH 7.4], 5 mM EDTA, 250 mM NaCl, 0.1% Triton X-100, 50 mM NaF, 0.1 trypsin inhibitor unit of aprotinin per ml, 50 μg of phenylmethylsulfonyl fluoride per ml, 100 μM sodium vanadate, 1 μg of leupeptin per ml).

[1] = panel assessed at 0.1, 1 and 10 μM, compared with TGFβR1 at 1 μM

inhibition at 1 µM [1]: 40 to 45%
Structure (SMILES): Cc1cccc(-c2nn3c(c2-c2ccnc4ccc(C(N)=O)cc24)CCC3)n1 [Galunisertib]

inhibition at 1 µM [1]: ~55%
Structure (SMILES): NC(=O)c1ccc(-c2nc(-c3ccc4c(c3)OCO4)c(-c3ccccn3)[nH]2)cc1 [SB431542]

NLK activity with compound added to activated NLK in in vitro kinase assay: robustly inhibited
inhibition of NLK phosphorylating NLK (5 μM): 84.3%
inhibition of NLK phosphorylating Raptor (5 μM): 89.1%
inhibition of NLK phosphorylating c-Myb (5 μM): 79.7%
inhibition of NLK activity in vitro [1]: approximately 80%
Structure (SMILES): Fc1ccc(Cl)cc1-c1nc(Nc2ccncc2)c2nccnc2n1 [SD208]

Structure (SMILES): CC(C)=CCC[C@](C)(O[C@@H]1O[C@H](CO[C@@H]2O[C@H](CO)[C@@H](O)[C@H](O)[C@H]2O)[C@@H](O)[C@H](O)[C@H]1O)[C@H]1CC[C@]2(C)[C@@H]1[C@H](O)C[C@@H]1[C@@]3(C)CC[C@H](O[C@@H]4O[C@H](CO)[C@@H](O)[C@H](O)[C@H]4O[C@@H]4O[C@H](CO)[C@@H](O)[C@H](O)[C@H]4O)C(C)(C)[C@@H]3CC[C@]12C [ginsenoside Rb1]
inhibition of NLK kinase activity in vitro (substrates Raptor, c-Myb, NLK): failed to inhibit

NLK activity with compound added to activated NLK in in vitro kinase assay: did not influence
Structure (SMILES): CN(C)C(=N)N=C(N)N [metformin]
